Patent publication US10858342B2, “Bicyclic imidazole derivatives useful for the treatment of renal diseases, cardiovascular diseases and fibrotic diseases” (Boehringer Ingelheim International GmbH, priority 2016, dated 2020)
Like-named read-outs stand apart in the source and are kept apart here.

Experiments:
Format in all cases: biochemical, cynomolgus monkey
[1] = test system: aldosterone synthase (CYP11B2); assay: Inhibition of aldosterone synthase (cynomolgus adrenal mitochondria, aldosterone by mass spectrometry); settings: selectivity for aldosterone synthase inhibition over cortisol synthase (CYP11B1) inhibition, fold
Procedure: (§1) The aldosterone synthase and cortisol synthase inhibition assays employ cynomolgus adrenal gland mitochondria as the source of aldosterone synthase (CYP11B2) and cortisol synthase (CYP11B1). […] One unit of CYP11B2 and CYP11B1 activity in these preparations is defined as the amount of enzyme that generates 1 pmol of product in one hour under the conditions described.
(§2) The compounds of the invention may be evaluated for aldosterone synthase inhibition by the following assay:
(§3) Assays are performed in 96-well format in a final volume of 60 microL/well, containing 100 mM potassium phosphate, pH 7.4, 1% (v/v) DMSO, and additionally, 2 μM of corticosterone and 50 units of CYP11B2 activity. Reactions are started by the addition of NADPH to 1 mM and allowed to proceed for 90 minutes at 37° C. Reactions are terminated by the addition of 60 μL of MeCN containing an internal standard for mass spectrometry. One hundred microliters are then transferred to a glass filter plate and centrifuged at 570×g for 5 minutes and the filtrate is collected. Reaction product aldosterone is quantified by mass spectrometry. To determine the assay blank value (0% activity), NADPH is omitted from some reactions.
(§4) Dose dependent inhibition is quantified by the inclusion of compound at various concentrations. Maximum activity (100%) is defined by reactions containing NADPH, but without compound.

[2] = target: aldosterone synthase (CYP11B2) (Macaca fascicularis, UniProt A0A2K5UPL9); assay: as above; settings: 2 μM corticosterone substrate, 50 units CYP11B2, 90 min, 37° C.; read-out: Aldosterone Inhibition IC50
aldosterone synthase (CYP11B2) (Macaca fascicularis, UniProt A0A2K5UPL9), sequence (A0A2K5UPL9 1-503): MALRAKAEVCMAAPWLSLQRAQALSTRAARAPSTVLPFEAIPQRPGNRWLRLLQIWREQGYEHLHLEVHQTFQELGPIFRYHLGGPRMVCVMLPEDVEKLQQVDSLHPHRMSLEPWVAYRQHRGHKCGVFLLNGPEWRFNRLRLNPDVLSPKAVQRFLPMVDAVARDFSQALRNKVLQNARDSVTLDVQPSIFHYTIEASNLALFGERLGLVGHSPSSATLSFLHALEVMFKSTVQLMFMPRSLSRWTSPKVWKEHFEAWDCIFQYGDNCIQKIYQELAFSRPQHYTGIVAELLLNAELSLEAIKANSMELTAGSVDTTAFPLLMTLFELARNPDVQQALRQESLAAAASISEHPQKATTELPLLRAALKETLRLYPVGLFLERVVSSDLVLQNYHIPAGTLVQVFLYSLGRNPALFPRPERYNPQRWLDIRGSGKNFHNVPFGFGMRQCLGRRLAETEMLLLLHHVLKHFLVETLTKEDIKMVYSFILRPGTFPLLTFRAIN
Procedure: as §1, §2, §3, §4

[3] = target: cortisol synthase (CYP11B1) (Macaca fascicularis, UniProt A0A2K5ULY1); assay: Inhibition of cortisol synthesis (cynomolgus adrenal mitochondria, cortisol by mass spectrometry)
Procedure: The aldosterone synthase and cortisol synthase inhibition assays employ cynomolgus adrenal gland mitochondria as the source of aldosterone synthase (CYP11B2) and cortisol synthase (CYP11B1). Mitochondria are prepared from frozen cynomolgus monkey adrenal glands according to Method A described in by J. D. McGarry et al. (Biochem. J., 1983, 214, 21-28), with a final resuspension in the AT buffer described in R. Yamaguchi et al. (Cell Death and Differentiation, 2007, 14, 616-624), frozen as aliquots in liquid nitrogen and stored at −80° C. until use. One unit of CYP11B2 and CYP11B1 activity in these preparations is defined as the amount of enzyme that generates 1 pmol of product in one hour under the conditions described.
as §3
Dose dependent inhibition is quantified by the inclusion of compound at various concentrations. Maximum activity (100%) is defined by reactions containing NADPH, but without compound. Activities at each concentration are expressed as a percentage of the maximum activity (y-axis) and plotted against concentration of compound (x-axis) and the concentration corresponding to 50% activity (IC50) determined using the XLFit curve-fitting program using a 4-parameter logistic model.
Assays are performed as for aldosterone synthase except for the use of 150 units of CYP11B1, 11-deoxycortisol as substrate and cortisol measured as product.

[4] = 11-deoxycortisol substrate, 150 units CYP11B1; read-out: Cortisol Inhibition IC50

CC1(C)CC(=O)c2c(ncn2-c2ccc(Cl)nc2)C1 [C-ABT, 3-(6-Chloro-pyridin-3-yl)-6,6-dimethyl-3,5,6,7-tetrahydro-benzoimidazol-4-one]
Selectivity [1]: 30
IC50 [2]: 230 nM
IC50 [3, 4]: 6900 nM

CC1(C)CC(=O)c2c(ncn2-c2ccc3c(c2)OCO3)C1 [C-ABU, 3-Benzo[1,3]dioxol-5-yl-6,6-dimethyl-3,5,6,7-tetrahydro-benzoimidazol-4-one]
Selectivity [1]: 120
IC50 [2]: 34 nM
IC50 [3, 4]: 4200 nM

Cc1cc(-n2cnc3c2C(=O)CC(C)(C)C3)ccc1C#N [C-ABV, 4-(5,5-Dimethyl-7-oxo-4,5,6,7-tetrahydro-benzoimidazol-1-yl)-2-methyl-benzonitrile]
Selectivity [1]: 20
IC50 [2]: 6.6 nM
IC50 [3, 4]: 130 nM

COC(=O)c1ccc(-n2cnc3c2C(=O)CC(C)(C)C3)cc1 [C-ABW, 4-(5,5-Dimethyl-7-oxo-4,5,6,7-tetrahydro-benzoimidazol-1-yl)-benzoic acid methyl ester]
Selectivity [1]: 24
IC50 [2]: 310 nM
IC50 [3, 4]: 7500 nM

CC1(C)CC(=O)c2c(ncn2-c2ccc(C#N)cc2)C1 [C-ABX, 4-(5,5-Dimethyl-7-oxo-4,5,6,7-tetrahydro-benzoimidazol-1-yl)-benzonitrile]
Selectivity [1]: 80
IC50 [2]: 17 nM
IC50 [3, 4]: 1300 nM

CC1(C)CC(=O)c2c(ncn2-c2cccc(C(F)(F)F)c2)C1 [C-ABZ, 6,6-Dimethyl-3-(3-trifluoromethyl-phenyl)-3,5,6,7-tetrahydro-benzoimidazol-4-one]
Selectivity [1]: 370
IC50 [2]: 73 nM
IC50 [3, 4]: 27000 nM

CC1(C)CC(=O)c2c(ncn2-c2ccccc2)C1 [C-ACA, 6,6-Dimethyl-3-phenyl-3,5,6,7-tetrahydro-benzoimidazol-4-one]
Selectivity [1]: 46
IC50 [2]: 250 nM
IC50 [3, 4]: 12000 nM

Cc1ccc(-n2cnc3c2C(=O)CC(C)(C)C3)cc1 [C-ACB, 6,6-Dimethyl-3-p-tolyl-3,5,6,7-tetrahydro-benzoimidazol-4-one]
Selectivity [1]: 200
IC50 [2]: 22 nM
IC50 [3, 4]: 4400 nM

CN1C(=O)CCc2cc(-n3cnc4c3C(=O)CCC4)ccc21 [C-ACD, 1-Methyl-6-(7-oxo-4,5,6,7-tetrahydro-benzoimidazol-1-yl)-3,4-dihydro-1H-quinolin-2-one]
Selectivity [1]: 920
IC50 [2]: 60 nM
IC50 [3, 4]: 55000 nM

O=C1CC2(CCC2)Cc2ncn(-c3ccc(F)c(F)c3)c21 [C-ACE]
Selectivity [1]: 32
IC50 [2]: 20 nM
IC50 [3, 4]: 630 nM

N#Cc1ccc(-n2cnc3c2C(=O)CC2(CCC2)C3)cc1Cl [C-ACG, 3-(4-Cyano, 3-chlorophenyl)-6,6-spirocyclobutyl-3,5,6,7-benzimidazolo-4-one]
Selectivity [1]: 7.5
IC50 [2]: 12 nM
IC50 ([3]; read-out: Cortisol Inhibition IC50; 11-deoxycortisol substrate, 150 units CYP11B1): 93 nM

CN1C(=O)CCc2cc(-n3cnc4c3C(=O)CC3(CC3)C4)ccc21 [C-ACH, 3-(1-Methyl-2-oxo-3,4-dihydroquinolin-6-yl)spiro[5,7-dihydrobenzimidazole-6,1′-cyclopropane]-4-one]
Selectivity [1]: 300
IC50 [2]: 16 nM
IC50 [3, 4]: 4900 nM

CC1(C)CC(=O)c2c(ncn2-c2ccc(C(F)(F)F)cc2)C1 [C-ACI, 6,6-Dimethyl-3-(4-trifluoromethyl-phenyl)-3,5,6,7-tetrahydro-benzoimidazol-4-one]
Selectivity [1]: 290
IC50 [2]: 62 nM
IC50 [3, 4]: 18000 nM

CC1(C)CC(=O)c2c(ncn2[C@H]2C[C@@H]3CC[C@H]2C3)C1 [C-ACL, 3-(1S,2S,3R)-Bicyclo[2.2.1]hept-2-1-6,6-dimethyl-3,5,6,7-tetrahydro-benzoimidazol-4-one]
Selectivity [1]: 87
IC50 [2]: 180 nM
IC50 [3, 4]: 16000 nM

COc1ccc2c(c1)CCC(n1cnc3c1C(=O)CC(C)(C)C3)C2 (stereo not drawn) [C-ACN, 3-(6-Methoxy-1,2,3,4-tetrahydro-naphthalen-2-yl)-6,6-dimethyl-3,5,6,7-tetrahydro-benzoimidazol-4-one]
Selectivity [1]: 460
IC50 [2]: 24 nM
IC50 [3, 4]: 11000 nM

CC1(C)CC(=O)c2c(ncn2CC2CCCCC2)C1 [C-ACP, 3-Cyclohexylmethyl-6,6-dimethyl-3,5,6,7-tetrahydro-benzoimidazol-4-one]
Selectivity [1]: 240
IC50 [2]: 24 nM
IC50 [3, 4]: 5900 nM

CC1(C)CC(=O)c2c(ncn2C2CCc3ccccc32)C1 (stereo not drawn) [C-ACQ, 3-Indan-1-yl-6,6-dimethyl-3,5,6,7-tetrahydro-benzoimidazol-4-one]
Selectivity [1]: 130
IC50 [2]: 220 nM
IC50 [3, 4]: > 30000 nM

CN1C[C@@H](n2cnc3c2C(=O)CC(C)(C)C3)CCC1=O [C-ACR, 6,6-Dimethyl-3-((S)-1-methyl-6-oxo-piperidin-3-yl)-3,5,6,7-tetrahydrobenzoimidazol-4-one]
Selectivity [1]: 38
IC50 [2]: 785 nM
IC50 [3, 4]: > 30000 nM

CC1(C)CC(=O)c2c(ncn2C2CC3(COC3)C2)C1 [C-ACT, 6,6-Dimethyl-3-(2-oxa-spiro[3.3]hept-6-yl)-3,5,6,7-tetrahydro-benzoimidazol-4-one]
Selectivity [1]: 38
IC50 [2]: 780 nM
IC50 [3, 4]: > 30000 nM

CC1(C)CC(=O)c2c(ncn2C2CC(c3ccccc3)C2)C1 (stereo not drawn) [C-ACU, 6,6-Dimethyl-3-(3-phenyl-cyclobutyl)-3,5,6,7-tetrahydro-benzoimidazol-4-one]
Selectivity [1]: 85
IC50 [2]: 110 nM
IC50 [3, 4]: 9400 nM

CC1(C)CC(=O)c2c(ncn2C2CCc3ncncc3C2)C1 (stereo not drawn) [C-ACV, 6,6-Dimethyl-3-(5,6,7,8-tetrahydro-quinazolin-6-yl)-3,5,6,7-tetrahydro-benzoimidazol-4-one]
Selectivity [1]: 35
IC50 [2]: 860 nM
IC50 [3, 4]: > 30000 nM

CC1(C)CC(=O)c2c(ncn2C2CCCCc3ccccc32)C1 (stereo not drawn) [C-ACW, 6,6-Dimethyl-3-(6,7,8,9-tetrahydro-5H-benzocyclohepten-5-yl)-3,5,6,7-tetrahydro-benzoimidazol-4-one]
Selectivity [1]: 300
IC50 [2]: 24 nM
IC50 [3, 4]: 7200 nM

CC1(C)CC(=O)c2c(ncn2CC2CCOC2)C1 (stereo not drawn) [C-ACX, 6,6-Dimethyl-3-(tetrahydro-furan-3-ylmethyl)-3,5,6,7-tetrahydro-benzoimidazol-4-one]
Selectivity [1]: 35
IC50 [2]: 870 nM
IC50 [3, 4]: > 30000 nM

CC1(C)CC(=O)c2c(ncn2Cc2ccc3[nH]ncc3c2)C1 [C-ACY, 3-(1H-Indazol-5-ylmethyl)-6,6-dimethyl-3,5,6,7-tetrahydro-benzoimidazol-4-one]
Selectivity [1]: 15
IC50 [2]: 110 nM
IC50 [3, 4]: 1700 nM

COC(=O)c1ccc(Cn2cnc3c2C(=O)CC(C)(C)C3)cc1 [C-ACZ, 4-(5,5-Dimethyl-7-oxo-4,5,6,7-tetrahydro-benzoimidazol-1-ylmethyl)-benzoic acid methyl ester]
Selectivity [1]: 41
IC50 [2]: 34 nM
IC50 [3, 4]: 1400 nM

CC1(C)CC(=O)c2c(ncn2CC2CC2)C1 [C-ADA, 3-Cyclopropylmethyl-6,6-dimethyl-3,5,6,7-tetrahydro-benzoimidazol-4-one]
Selectivity [1]: 23
IC50 [2]: 530 nM
IC50 [3, 4]: 12000 nM

CC1(C)CC(=O)c2c(ncn2Cc2ccc(-n3cncn3)cc2)C1 [C-ADB, 6,6-Dimethyl-3-(4-[1,2,4]triazol-1-yl-benzyl)-3,5,6,7-tetrahydro-benzoimidazol-4-one]
Selectivity [1]: 14
IC50 [2]: 540 nM
IC50 [3, 4]: 7400 nM

Cc1nnsc1Cn1cnc2c1C(=O)CC(C)(C)C2 [C-ADC, 6,6-Dimethyl-3-(4-methyl-[1,2,3]thiadiazol-5-ylmethyl)-3,5,6,7-tetrahydro-benzoimidazol-4-one]
Selectivity [1]: 180
IC50 [2]: 250 nM
IC50 [3, 4]: 45000 nM

CN1CCOc2cc(Cn3cnc4c3C(=O)CC(C)(C)C4)cnc21 [C-ADD, 6,6-Dimethyl-3-(4-methyl-3,4-dihydro-2H-pyrido[3,2-b][1,4]oxazin-7-ylmethyl)-3,5,6,7-tetrahydro-benzoimidazol-4-one]
Selectivity [1]: 20
IC50 [2]: 540 nM
IC50 [3, 4]: 11000 nM
